Experimental data published in US20020132817A1, “Heterocyclic compounds, their production and use” (priority 1998, published 2002).
pIC50: −log10 of the molar value. Marks after values point to notes of the source that are not given here.

Legend:
substance P receptor = target: T1, substance P receptor (Homo sapiens, UniProt P25103); assay: Radioligand receptor binding inhibitory activity using receptor from human lymphoblast cells (IM-9); conditions: 125I-BHSP radioligand, receptor from IM-9 cells, 25° C. for 30 minutes
T1 construct: The receptor was prepared from human lymphoblast cells (IM-9); endogenous in cells; host or cells: IM-9 human lymphoblast cells (membrane preparation)
Method: Radioligand receptor binding inhibitory activity Binding inhibitory activity using receptor from human lymphoblast cells (IM-9)
The receptor was prepared from human lymphoblast cells (IM-9). IM-9 cells (2×10^5 cells/ml) were inoculated and incubated for 3 days (one liter), which was then subjected to centrifuge for 5 minutes at 500×g to obtain cell pellets. […] The residue was washed twice with 30 ml of the above-mentioned buffer, which was then preserved frozen (−80° C.) as a specimen of the receptor.
The specimen was suspended in a reaction buffer (50 mM Tri-HCl buffer (pH 7.4), 0.02% bovine serum albumin, 1 mM phenylmethylsulfonyl fluoride, […], […] bacitracin, 3 mM manganese chloride) and 100 ul portion was the suspension was used in the reaction. […] The amount of nonspecific binding was determined by adding substance P at a final concentration of 2×10^−6M. After the reaction, using a cell harvester (290 PHD, Cambridge Technology, Inc, U.S.A.), rapid filtration was carried out through a glass filter (GF/B, Whatman, U.S.A.) to stop the reaction. After washing three times with 250 ul of 50 mM of Tris-HCl buffer (pH 7.4) containing 0.02% bovine serum albumin, the radioactivity remaining on the filter was determined with a gamma counter. Before use, the filter was immersed in 0.1% polyethyleneimine for 24 hours and air-dried.

[1] = test system: plasma extravasation induced by capsaicin in trachea of guinea pigs; assay: Inhibitory effect on plasma extravasation induced by capsaicin in trachea of guinea pigs; assay type: in vivo; conditions: for ED50: Cavia porcellus, iv, 5 minutes before capsaicin, Evans' blue dye in trachea, read-out: ID50, μg/kg, i.v.
Method: Guinea pigs (Hartley type white male guinea pige), (n=6) were anesthetized with 35 mg/kg of pentobarbital injected intraperitoneally (i.p.), then test compounds were administered intravenously (i.v.). After 5 minutes, a mixed solution of capsaicin ([…]) and Evans' blue dye (20 mg/kg) was administered intravenously to cause reaction. Ten minutes later, test animals were sacrificed by cutting the aorta, then perfused through pulmonary artery with 50 ml of physiological saline. The trachea was excised, and its wet weight was measure. The trachea was incubated at room temperature in 1 ml of acetone-0.3% sodium sulfate (7:3) overnight and Evans' blue dye was extracted from the trachea. The extract solution was centrifuged at 2800 rpm for 5 minutes. The amount of Evans' blue dye in the supernatant was quantified by measuring absorbance at […].
The reaction of accelerating the permeability of blood vessels is expressed in terms of the amount of Evans' blue (μg) per trachea unit weight (g) and the effect of drug was evaluated by calculating the degree of inhibition (% inhibition) according to the following equation: […]

human NK2 receptor = target: T2, human NK2 receptor (Homo sapiens, UniProt P21452); assay: Binding inhibitory activity toward human NK2 receptor; conditions: (2-[125I]iodohistidyl1)Neurokinin A 0.1 nM, receptor expressed in COS-7 cells, room temperature 60 min
T2 construct: expressed in transfected cells; host or cells: COS-7 cells, transient transfection with an SRa-promoter expression vector; membrane preparation
T2 sequence (P21452 1-398): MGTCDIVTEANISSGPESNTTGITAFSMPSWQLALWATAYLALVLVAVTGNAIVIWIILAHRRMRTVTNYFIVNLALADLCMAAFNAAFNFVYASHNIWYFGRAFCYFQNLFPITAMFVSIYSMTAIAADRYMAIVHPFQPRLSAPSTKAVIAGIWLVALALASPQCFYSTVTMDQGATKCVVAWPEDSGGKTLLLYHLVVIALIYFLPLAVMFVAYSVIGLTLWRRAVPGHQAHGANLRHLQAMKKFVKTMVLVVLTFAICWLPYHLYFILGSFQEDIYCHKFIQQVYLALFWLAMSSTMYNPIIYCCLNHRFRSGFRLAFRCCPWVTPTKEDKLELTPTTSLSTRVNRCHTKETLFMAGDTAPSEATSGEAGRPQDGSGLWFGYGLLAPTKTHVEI

T1 sequence (P25103 whole entry): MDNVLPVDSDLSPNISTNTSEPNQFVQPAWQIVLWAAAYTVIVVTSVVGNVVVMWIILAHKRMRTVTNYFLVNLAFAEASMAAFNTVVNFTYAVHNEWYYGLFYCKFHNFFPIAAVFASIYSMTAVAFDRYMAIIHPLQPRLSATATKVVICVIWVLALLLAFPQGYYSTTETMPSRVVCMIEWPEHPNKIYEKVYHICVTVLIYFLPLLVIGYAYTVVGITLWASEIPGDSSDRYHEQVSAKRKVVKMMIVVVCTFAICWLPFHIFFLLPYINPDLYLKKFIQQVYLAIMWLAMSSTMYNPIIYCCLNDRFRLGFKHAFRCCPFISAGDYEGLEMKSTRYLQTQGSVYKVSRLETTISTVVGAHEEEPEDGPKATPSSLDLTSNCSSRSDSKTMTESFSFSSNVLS

## Cc1ccc(-c2c3n(c(=O)c4ncccc24)CCCN(Cc2cc(C(F)(F)F)cc(C(F)(F)F)c2)C3=O)cc1 [Reference Example 56, 7-[3,5-Bis(trifluoromethyl)benzyl]-6,7,8,9,10,12-hexahydro-5-(4-methylphenyl)-6,12-dioxo[1,4]diazepino[2,1-g][1,7]naphthyridine]
Substance P receptor
  pIC50: 9.55
other
  melting point: 194 to 195 °C
[1]
  ED50: 7.2 µg/kg

## Cc1ccc(-c2c3n(c(=O)c4ncccc24)CCCCN(Cc2cc(C(F)(F)F)cc(C(F)(F)F)c2)C3=O)cc1 [Reference Example 57, 7-[3,5-Bis(trifluoromethyl)benzyl]-6,7,8,9,10,11-hexahydro-5-(4-methylphenyl)-6,13-dioxo-13H-[1,4]diazocino[2,1-g][1,7]naphthyridine]
Substance P receptor
  pIC50: 9.12
[1]
  ED50: 4.2 µg/kg

## O=C1c2c(-c3ccccc3)c3cccnc3c(=O)n2CCCCN1Cc1cc(C(F)(F)F)cc(C(F)(F)F)c1 [Reference Example 62, 7-[3,5-Bis(trifluoromethyl)benzyl]-6,7,8,9,10,11-hexahydro-6,13-dioxo-5-phenyl-13H-[1,4]diazocino[2,1-g][1,7]naphthyridine]
Substance P receptor
  pIC50: 8.92
[1]
  ED50: 3.2 µg/kg

## Cc1ccc(-c2c3n(c(=O)c4ncccc24)C[C@H](C)CN(Cc2cc(C(F)(F)F)cc(C(F)(F)F)c2)C3=O)cc1 [Reference Example 66, (9R)-7-[3,5-Bis(trifluoromethyl)benzyl]-6,7,8,9,10,12-hexahydro-9-methyl-5-(4-methylphenyl)-6,12-dioxo[1,4]diazepino[2,1-g][1,7]naphthyridine]
other
  melting point: 179 to 180 °C
[1]
  ED50: 41 µg/kg

## C[C@H]1CN(Cc2cc(C(F)(F)F)cc(C(F)(F)F)c2)C(=O)c2c(-c3ccccc3)c3cccnc3c(=O)n2C1 [Reference Example 67, (9S)-7-[3,5-Bis(trifluoromethyl)benzyl]-6,7,8,9,10,12-hexahydro-9-methyl-6,12-dioxo-5-phenyl[1,4]diazepino[2,1-g][1,7]naphthyridine]
Substance P receptor
  pIC50: 9.77
other
  melting point: 150 to 152 °C
[1]
  ED50: 1.6 µg/kg

## Cc1ccc(-c2c3n(c(=O)c4ncccc24)C[C@@H](C)CN(Cc2cc(C(F)(F)F)cc(C(F)(F)F)c2)C3=O)cc1 [Reference Example 68, (9S)-7-[3,5-Bis(trifluoromethyl)benzyl]-6,7,8,9,10,12-hexahydro-9-methyl-5-(4-methylphenyl)-6,12-dioxo[1,4]diazepino[2,1-g][1,7]naphthyridine]
other
  melting point: 179 to 180 °C
[1]
  ED50: 3.2 µg/kg

## C[C@@H]1CCn2c(c(-c3ccccc3)c3cccnc3c2=O)C(=O)N(Cc2cc(C(F)(F)F)cc(C(F)(F)F)c2)C1 [Reference Example 71, (9R)-7-[3,5-Bis(trifluoromethyl)benzyl]-6,7,8,9,10,11-hexahydro-9-methyl-6,13-dioxo-5-phenyl-13H-[1,4]diazocino[2,1-g] [1,7]naphthyridine]
Substance P receptor
  pIC50: 9.64
other
  melting point: 245 to 247 °C
[1]
  ED50: 1.9 µg/kg

## O=C1c2c(-c3ccccc3)ccnc2OCCCN1Cc1cc(C(F)(F)F)cc(C(F)(F)F)c1 [Reference Example 76, 5-[3,5-Bis(trifluoromethyl)benzyl]-2,3,4,5-tetrahydro-6-oxo-7-phenyl-6H-pyrido[2,3-b][1,5]oxazocine]
Human NK2 receptor
  pIC50: 8.12
other
  melting point: 188 to 189 °C

## Cc1cnc2c(c1-c1ccccc1)C(=O)N(Cc1cc(C(F)(F)F)cc(C(F)(F)F)c1)CCO2 [Reference Example 77, 4-[3,5-Bis(trifluoromethyl)benzyl]-2,3,4,5-tetrahydro-7-methyl-5-oxo-6-phenylpyrido[3,2-f][1,4]oxazepine]
Substance P receptor
  pIC50: 8.96
[1]; Dosage (i.v.) 100 μg/kg
  Degree of Inhibition (%): 64.0* %

## O=C1c2c(-c3ccccc3)c3cccnc3c(=O)n2CCCCN1Cc1ccccc1 [Reference Example 81, 7-Benzyl-6,7,8,9,10,11-hexahydro-6,13-dioxo-5-phenyl-13H-[1,4]diazocino[2,1-g][1,7]naphthyridine]
Human NK2 receptor
  pIC50: 8.21

## Cc1cc(-c2ccccc2)c2c(n1)OCCN(Cc1cc(C(F)(F)F)cc(C(F)(F)F)c1)C2=O [Reference Example 87, 4-[3,5-Bis(trifluoromethyl)benzyl]-2,3,4,5-tetrahydro-8-methyl-5-oxo-6-phenylpyrido[3,2-f][1,4]oxazepine]
Human NK2 receptor
  pIC50: 8.02
other
  melting point: 151 to 153 °C

## C[C@@H]1CCn2c(c(-c3ccc(CO)cc3)c3cccnc3c2=O)C(=O)N(Cc2cc(C(F)(F)F)cc(C(F)(F)F)c2)C1 [Reference Example 137, (9R)-7-[3,5-bis(trifluoromethyl)benzyl]-6,7,8,9,10,11-hexahydro-5-(4-hydroxymethylphenyl)-9-methyl-6,13-dioxo-13H-[1,4]diazosino[2,1-g][1,7]napththylidine]
Substance P receptor
  pIC50: 9.08
other
  melting point: 240 to 241 °C
[1]
  ED50: 2.5 µg/kg
